Measurements published in patent US12435061B2 (priority 2020, dated 2025).
In brackets after ≈: the same amount, converted by molar mass. Several values for one entry are separate records, joined by “and”; a condition that tells them apart may be missing. Identical values can stand only once.

What was measured:
[1] = Metabolic Stability assay, rat liver microsomes; assay type: in vitro ADME; conditions: for half-life at 1 μM: read-out: LM T1/2 (min) (rat); for LM T1/2 (min) (rat): 1 μM
Summary of the method: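 Reactions in human or rat liver microsomes at 37 °C were started with an NADPH-regenerating system, using 1 μM compound initially. Samples were taken at 0, 7, 15, 30 and 60 min, quenched in ice-cold acetonitrile/MeOH/H2O, and quantified by HPLC/MS/MS.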

hTRPV3 [2] = molecular target: T1, hTRPV3 (Homo sapiens (Human), UniProt Q8NET8); assay: hTRPV3 HAMA IC50 assay (Hamamatsu FDSS6000 calcium flux, TRex-293 cells)
Procedure: IC50s were calculated using CBIS from ChemInnovation (San Diego).

[3] = Aqueous solubility assay in Normal Ringer Solution; conditions: Normal Ringer Solution; for solubility at 40 min: saline or isotonic, kinetic from dmso stock
Procedure: Following vortex and incubation for a sufficient time (e.g. 40 minutes at room temperature), solutions were filtered, quenched with acetonitrile, and analyzed by Liquid Chromotography. Solubility Limits were determined by comparison to a standard curve.

hTRPV3 [4] = molecular target: T1, hTRPV3; assay: Whole-cell patch clamp, hTRPV3 Phase 1 / Phase 2 currents; assay type: cell-based
Summary of the method: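 Currents are activated by 20 μM 2-APB or by perfusate at 28 °C or warmer, in Ringer's solution, and quantified at ±80 mV.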

hTRPV3 [5] = molecular target: T1, hTRPV3; assay: FLIPR Assay (calcium flux, HEK293 cells stably expressing TRPV3); assay type: cell-based
Procedure: In Tables 3 and 4, Phase 1 refers to Phase 1 current for human (h) TRPV3 or rat (r) TRPV3, and Phase 2 refers to Phase 2 current for human (h) TRPV3 or rat (r) TRPV3. The hTRPV3 and rTRPV3 assays were performed as described herein. hERG refers to the inhibition the human ERG (hERG) channel. NaV1.5, refers to the pore forming aL-subunit of the voltage-dependent cardiac Na(+) channel and is an integral membrane protein involved in the initiation and conduction of action potentials. hTRPV3 HAMA IC50 refers to the IC50 of TRPV3 cells stably expressed in TRex-293 cells. Solubility Ringer refers to the compounds' solubility in Ringer's solution. LM T1/2 refers to liver microsome half-lives in either rat or human liver microsomes. FLIPR IC50 refers to the IC50 of the test compounds against recombinant hTRPV3 cells.
The cells were treated with IBSS and 20 mM HEPES adjusted to pH 7.4 in the presence of the fluorescent calcium indicator e.g. Fluo-4AM (5 uM) and the plates were incubated at 37° C. and […] for approximately 1 hour and cooled to room temperature. […] Relative Fluorescence Units (RFU) were measured for each response for signal maximum minus minimum during approximately 90 seconds after addition.

[6] = Phase 1 current, inward, whole-cell patch clamp, read-out: hTRPV3 Patch P1 Inwd
[7] = Phase 1 current, read-out: hTRPV3 (nM) (Phase 1)
[8] = read-out: hTRPV3 (nM) (Phase 1)
[9] = hTRPV3 HAMA IC50 (nM) (5 min), 5 min
[10] = Phase 2 current, inward, whole-cell patch clamp, read-out: hTRPV3 Patch P2 Inwd
[11] = Phase 2 current, read-out: hTRPV3 (nM) (Phase 2)
[12] = hTRPV3 HAMA IC50 (nM) (30 min), 30 min

T1 sequence (Q8NET8 whole entry): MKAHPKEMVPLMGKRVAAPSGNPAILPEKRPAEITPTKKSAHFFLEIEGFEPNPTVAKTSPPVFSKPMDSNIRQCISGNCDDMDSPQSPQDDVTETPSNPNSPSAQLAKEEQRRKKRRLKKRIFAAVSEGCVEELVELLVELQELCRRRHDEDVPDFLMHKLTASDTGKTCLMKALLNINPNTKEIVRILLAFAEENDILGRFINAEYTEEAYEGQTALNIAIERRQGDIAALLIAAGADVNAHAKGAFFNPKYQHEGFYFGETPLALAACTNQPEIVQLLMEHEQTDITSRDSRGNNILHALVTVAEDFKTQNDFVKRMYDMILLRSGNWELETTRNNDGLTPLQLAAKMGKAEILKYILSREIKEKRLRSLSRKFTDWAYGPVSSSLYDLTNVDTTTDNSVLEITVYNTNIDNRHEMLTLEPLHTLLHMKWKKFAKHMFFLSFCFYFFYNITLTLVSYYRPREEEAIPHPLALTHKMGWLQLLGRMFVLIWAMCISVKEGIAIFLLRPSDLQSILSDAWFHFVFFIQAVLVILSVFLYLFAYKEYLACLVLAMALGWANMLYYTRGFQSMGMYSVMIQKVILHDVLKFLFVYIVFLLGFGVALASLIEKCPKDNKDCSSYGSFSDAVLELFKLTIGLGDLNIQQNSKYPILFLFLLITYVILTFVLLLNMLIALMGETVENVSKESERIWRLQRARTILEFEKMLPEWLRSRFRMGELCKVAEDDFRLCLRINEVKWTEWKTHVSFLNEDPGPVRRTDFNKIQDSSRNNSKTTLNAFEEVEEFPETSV

Molecule | half-life at 1 μM [1] [min] | hTRPV3 HAMA IC50 (nM) (5 min) (hTRPV3 [2]; 5 min) | Solubility Ringer (nM) ([3]; room temperature) | IC50 (hTRPV3 [4]; [6]) [nM] | IC50 (hTRPV3 [4]; [7]) [nM] | IC50 (hTRPV3 [5]; read-out: FLIPR IC50) [µM] | also measured
OCCCc1cc(-c2ccccc2)ccc1N1CC[C@H](Oc2ccc(C(F)(F)F)cn2)C1 [Compound 1-138, (S)-3-(4-(3-(5-(trifluoromethyl)pyridin-2-yloxy)pyrrolidin-1-yl)biphenyl-3-yl)propan-1-ol] | 62.4 | no fit (5 min) | BLQ | 100 to 1000 | 275 |  | 
OCc1nc(Oc2ccccc2)ccc1N1CC[C@H](Oc2ccc(C(F)(F)F)cn2)C1 [Compound 1-139, (S)-(6-phenoxy-3-(3-(5-(trifluoromethyl)pyridin-2-yloxy)pyrrolidin-1-yl)pyridin-2-yl)methanol] |  |  |  | 10 to 100 | 23.6 |  | LM T1/2 (min) (rat) [1]: 30.7 (rat) min; IC50 (hTRPV3 [2]; read-out: hTRPV3 HAMA IC50 (nM) (5 min), 5 min): 5750 nM; Solubility Ringer ([3]; room temperature): ~0.3 µM (≈ 0.129 µg/mL)
NC(=O)c1cc(Cc2ccccc2)ccc1N1CC[C@H](Oc2ccc(C(F)(F)F)cn2)C1 [Compound 1-140, (S)-5-benzyl-2-(3-(5-(trifluoromethyl)pyridin-2-yloxy)pyrrolidin-1-yl)benzamide] | 27.7 | no fit (5 min) | BLQ |  |  |  | IC50 (hTRPV3 [4]; hTRPV3 Patch P1 Inwd (nM)): 100 to 1000 nM; IC50 (hTRPV3 [4]; [8]): 710 nM
NC(=O)c1cc(C(O)c2ccccc2)ccc1N1CC[C@H](Oc2ccc(C(F)(F)F)cn2)C1 (stereo partly drawn) [Compound 1-146, 5-(hydroxy(phenyl)methyl)-2-((S)-3-(5-(trifluoromethyl)pyridin-2-yloxy)pyrrolidin-1-yl)benzamide] | 45.8 |  |  | 100 to 1000 | 686 |  | IC50 (hTRPV3 [2]; [9]): 11800 nM; solubility at 40 min [3]: > 13.3 µM
OCc1cc(Oc2ccccc2)ccc1N1CC[C@H](Oc2ncccc2Cl)C1 [Compound 1-168, (S)-(2-(3-(3-chloropyridin-2-yloxy)pyrrolidin-1-yl)-5-phenoxyphenyl)methanol] | 26.7 |  |  | 10 to 100 | 61.2 |  | IC50 (hTRPV3 [2]; [9]): > 20000 nM; solubility at 40 min [3]: ~0.5 µM (≈ 0.198 µg/mL); IC50 (hTRPV3 [4]; [10]): 10 to 100 nM; IC50 (hTRPV3 [4]; [11]): 90.5 nM
Cc1ccccc1Oc1ccc(N2CC[C@H](Oc3ncccc3Cl)C2)c(CO)c1 [Compound 1-173, (S)-(2-(3-(3-chloropyridin-2-yloxy)pyrrolidin-1-yl)-5-(o-tolyloxy)phenyl)methanol] | 27.9 |  | BLQ | 10 to 100 | ~29 |  | IC50 (hTRPV3 [2]; [9]): > 20000 nM and 12000 nM; IC50 (hTRPV3 [2]; [12]): 1900 nM; IC50 (hTRPV3 [4]; [10]): 10 to 100 nM; IC50 (hTRPV3 [4]; [11]): 34.7 nM
COc1ccccc1Oc1ccc(N2CC[C@H](Oc3ncccc3Cl)C2)c(CO)c1 [Compound 1-221, (S)-(2-(3-(3-chloropyridin-2-yloxy)pyrrolidin-1-yl)-5-(2-methoxyphenoxy)phenyl)methanol] | 12.9 | no fit |  |  |  |  | IC50 (hTRPV3 [2]; [12]): 19400 nM; solubility at 40 min [3]: ~2.9 µM (≈ 1.24 µg/mL); IC50 (hTRPV3 [4]; hTRPV3 Patch P1 Inwd (nM)): 100 to 1000 nM; IC50 (hTRPV3 [4]; [8]): 159 nM
CCc1ccccc1Oc1ccc(N2CC[C@H](Oc3ncccc3Cl)C2)c(CO)c1 [Compound 1-222, (S)-(2-(3-(3-chloropyridin-2-yloxy)pyrrolidin-1-yl)-5-(2-ethylphenoxy)phenyl)methanol] | 18.7 | no fit | BLQ | < 10 | 3.91 |  | IC50 (hTRPV3 [2]; [12]): 1790 nM
OCc1cc(Oc2ccccc2Cl)ccc1N1CC[C@H](Oc2ncccc2Cl)C1 [Compound 1-223, (S)-(5-(2-chlorophenoxy)-2-(3-(3-chloropyridin-2-yloxy)pyrrolidin-1-yl)phenyl)methanol] | 17.2 | no fit | BLQ | 10 to 100 | 39.3 |  | IC50 (hTRPV3 [2]; [12]): 14600 nM; IC50 (hTRPV3 [4]; [10]): 10 to 100 nM; IC50 (hTRPV3 [4]; [11]): 13.3 nM
CCc1ccccc1-c1ccc(CO)c(N2CC[C@H](Oc3ncccc3Cl)C2)c1 [Compound 1-229, (S)-(3-(3-(3-chloropyridin-2-yloxy)pyrrolidin-1-yl)-2′-ethylbiphenyl-4-yl)methanol] | 4.46 | no fit (5 min) no fit (30 min) |  | 10 to 100 | 69.2 |  | hTRPV3 HAMA IC50 (nM) (30 min) (hTRPV3 [2]; 30 min): no fit (5 min) no fit (30 min); solubility at 40 min [3]: 0.16 µM (≈ 0.0654 µg/mL)
OCc1ccc(Oc2ccccc2Cl)cc1N1CC[C@H](Oc2ncccc2Cl)C1 [Compound 1-232, (S)-(4-(2-chlorophenoxy)-2-(3-(3-chloropyridin-2-yloxy)pyrrolidin-1-yl)phenyl)methanol] | 5.87 | no fit (5 min) no fit (30 min) |  | 10 to 100 | ~72.5 |  | hTRPV3 HAMA IC50 (nM) (30 min) (hTRPV3 [2]; 30 min): no fit (5 min) no fit (30 min); solubility at 40 min [3]: 0.25 µM (≈ 0.108 µg/mL)
CCc1ccccc1Oc1ccc(CO)c(N2CC[C@H](Oc3ncccc3Cl)C2)c1 [Compound 1-233, (S)-(2-(3-(3-chloropyridin-2-yloxy)pyrrolidin-1-yl)-4-(2-ethylphenoxy)phenyl)methanol] | 10.4 | no fit | BLQ | 10 to 100 | ~21.6 |  | IC50 (hTRPV3 [2]; [12]): > 20000 nM
Cc1ccccc1Oc1ccc(N2CC[C@H](Oc3ncccc3Cl)C2)c(CCO)c1 [Compound 1-235, (S)-2-(2-(3-(3-chloropyridin-2-yloxy)pyrrolidin-1-yl)-5-(o-tolyloxy)phenyl)ethanol] | 21.9 |  | BLQ | 10 to 100 | 19.9 |  | IC50 (hTRPV3 [2]; [9]): > 20000 nM; IC50 (hTRPV3 [2]; [12]): 6600 nM
COc1ccccc1Oc1ccc(N2CC[C@H](Oc3ncccc3Cl)C2)c(CCO)c1 [Compound 1-237, (S)-2-(2-(3-(3-chloropyridin-2-yloxy)pyrrolidin-1-yl)-5-(2-methoxyphenoxy)phenyl)ethanol] | 8.33 |  |  | 100 to 1000 | 251 |  | IC50 (hTRPV3 [2]; [9]): > 20000 nM; IC50 (hTRPV3 [2]; [12]): 19800 nM; solubility at 40 min [3]: ~1.5 µM (≈ 0.661 µg/mL)
Cc1ccccc1Oc1ccc(CO)c(N2CC[C@H](Oc3ncccc3Cl)C2)c1 [Compound 1-241, (S)-(2-(3-(3-chloropyridin-2-yloxy)pyrrolidin-1-yl)-4-(o-tolyloxy)phenyl)methanol] | 6.19 | no fit (5 min) no fit (30 min) |  | 10 to 100 | 18.6 |  | hTRPV3 HAMA IC50 (nM) (30 min) (hTRPV3 [2]; 30 min): no fit (5 min) no fit (30 min); solubility at 40 min [3]: ~0.37 µM (≈ 0.152 µg/mL)
Cc1nnc(C(=O)N2CCC(c3ccc(-c4ccccc4C4CC4)cc3CO)C2)o1 (stereo not shown) [Compound 2-129] |  |  |  |  |  | > 10 | 
O=C(c1cnc(O)cn1)N1CCC(c2ccc(-c3ccccc3C3CC3)cc2CO)C1 (stereo not shown) [Compound 2-130] |  |  |  |  |  |  | IC50 (hTRPV3 [5]; FLIPR IC50 (uM)): 4.8 µM
O=C(c1cncc(O)n1)N1CCC(c2ccc(-c3ccccc3C3CC3)cc2CO)C1 (stereo not shown) [Compound 2-131] |  |  |  |  |  |  | IC50 (hTRPV3 [5]; FLIPR IC50 (uM)): > 10 µM
O=C(c1cc(O)ccn1)N1CCC(c2ccc(-c3ccccc3C3CC3)cc2CO)C1 (stereo not shown) [Compound 2-132] |  |  |  |  |  | > 10 | 
O=C(c1ccc(O)nn1)N1CCC(c2ccc(-c3ccccc3C3CC3)cc2CO)C1 (stereo not shown) [Compound 2-133] |  |  |  |  |  | > 10 | 
O=C(c1ccc(CO)cn1)N1CCC(c2ccc(-c3ccccc3C3CC3)cc2CO)C1 (stereo not shown) [Compound 2-134] |  |  |  |  |  | 9.5 | 
O=C(c1ccc(O)cn1)N1CCC(c2ccc(-c3ccccc3C3CC3)cc2CO)C1 (stereo not shown) [Compound 2-135] |  |  |  |  |  | 3.09 | 
Cc1nc(C(=O)N2CCC(c3ccc(-c4ccccc4C4CC4)cc3CO)C2)cnc1O (stereo not shown) [Compound 2-136] |  |  |  |  |  | 5.17 | 
O=C(c1cnc(CO)cn1)N1CCC(c2ccc(-c3ccccc3C3CC3)cc2CO)C1 (stereo not shown) [Compound 2-137] |  |  |  |  |  | > 10 | 
O=C(c1ccc(CO)nn1)N1CCC(c2ccc(-c3ccccc3C3CC3)cc2CO)C1 (stereo not shown) [Compound 2-138] |  |  |  |  |  | > 10 | 
(S)-(2′-chloro-4-(3-(5-(trifluoromethyl)pyridin-2-yloxy)pyrrolidin-1-yl)biphenyl-3-yl)methanol [Compound 1-132] |  | no fit (5 min) | BLQ | 10 to 100 | 32 |  | LM T1/2 (min) (rat) [1]: 54.1 (rat) min
